Among the data in patent US10538555B2, “Macrocyclic inhibitors of the PD-1/PD-L1 and CD80(B7-1)/PD-L1 protein/protein interactions” (BRISTOL-MYERS SQUIBB COMPANY, priority 2014, dated 2020) are IC50 values, retold here.

Where a SMILES comes first, the peptide text is derived from it. Bridges are numbered along the chain shown (N, C = ends). [ ]: non-standard residue; d: D form. Trp(1-CH2COOH) = N[C@@H](Cc1cn(CC(=O)O)c2ccccc12)C(=O)O; Morpholine(3S-CO,6,6-Me2) = CC1(C)CN[C@H](C(=O)O)CO1; Phe(4-NO2) = N[C@@H](Cc1ccc([N+](=O)[O-])cc1)C(=O)O; Phe(3,4,5-F3) = N[C@@H](Cc1cc(F)c(F)c(F)c1)C(=O)O; Phe(3,4-F2) = N[C@@H](Cc1ccc(F)c(F)c1)C(=O)O; NMePhe(4-F) = CN[C@@H](Cc1ccc(F)cc1)C(=O)O; d(cisHyp) = O=C(O)[C@H]1C[C@@H](O)CN1; Hyp = O=C(O)[C@@H]1C[C@@H](O)CN1; NMeF = CN[C@@H](Cc1ccccc1)C(=O)O; NMeE = CN[C@@H](CCC(=O)O)C(=O)O; NMehSer = CN[C@@H](CCO)C(=O)O; NMeNle = CCCC[C@H](NC)C(=O)O; dPip = O=C(O)[C@H]1CCCCN1; NMeA = CN[C@@H](C)C(=O)O; dThz = O=C(O)[C@H]1CSCN1; Dab = NCC[C@H](N)C(=O)O; Dap = NC[C@H](N)C(=O)O; Sar = CNCC(=O)O

T1 sequence (Q9NZQ7 with tags, fused parts or gaps): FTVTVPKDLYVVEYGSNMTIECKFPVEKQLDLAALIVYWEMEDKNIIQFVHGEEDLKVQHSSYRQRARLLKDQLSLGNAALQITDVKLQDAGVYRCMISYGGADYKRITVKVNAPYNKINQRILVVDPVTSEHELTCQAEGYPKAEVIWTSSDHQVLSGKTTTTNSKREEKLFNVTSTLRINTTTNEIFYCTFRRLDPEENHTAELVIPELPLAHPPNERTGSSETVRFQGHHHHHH

The first experiment concerns the target T1, Human PD-L1/PD-1 (Homo sapiens, UniProt Q9NZQ7).
T1 construct: TVMV protease cleavage site (C); made in house; host or cells: HEK293T cells
In words: HTRF Human PD-L1/PD-1 binding assay (PD-1-Ig/PD-L1-His). Conditions: PD-L1-His 10 nM, PD-1-Ig 20 nM; class symbol; read-out: HTRF Human PD-L1/PD-1 Binding Assay IC50 Range. In a few lines: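 Compound preincubated 15 min with PD-L1-His (10 nM final), then PD-1-Ig (20 nM final) added for 15 min in dPBS with 0.1% BSA and 0.05% Tween-20. Detection by Eu-cryptate anti-Ig (1 nM) and APC anti-His (20 nM) after 30 min; 665/620 nm HTRF ratio. Proteins expressed in HEK293T.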
Background: In TR-FRET formats the signal depends on donor and acceptor labels being close together.
Consider `CCCC[C@H]1C(=O)N(C)[C@@H](CCCC)C(=O)N[C@@H](C)C(=O)N[C@H](C(=O)NCC(N)=O)CSCC(=O)N[C@@H](Cc2ccc(O)cc2)C(=O)N2CC(C)(C)OC[C@H]2C(=O)N[C@@H](CC(N)=O)C(=O)N2CCC[C@H]2C(=O)N[C@@H](CN)C(=O)N[C@@H](CCC(N)=O)C(=O)N2C[C@H](O)C[C@H]2C(=O)N[C@@H](Cc2c[nH]c3ccccc23)C(=O)N[C@@H](CO)C(=O)N[C@@H](Cc2c[nH]c3ccccc23)C(=O)N1C` [Example 1281] ({CH2CO}-Y[Morpholine(3S-CO,6,6-Me2)]NP[Dap]Q[Hyp]WSW[NMeNle][NMeNle]ACG-NH2; thioether N-14), for which the IC50 was in the range of 1 to 9.9 nM.

Consider `CCCC[C@H]1C(=O)N2CCC[C@@H]2C(=O)N[C@@H](CC(=O)O)C(=O)N[C@@H](C(C)C)C(=O)N(C)[C@@H](Cc2ccccc2)C(=O)N[C@@H](CCC(=O)O)C(=O)N2CCCC[C@@H]2C(=O)N[C@@H](Cc2c[nH]c3ccccc23)C(=O)N[C@@H](Cc2ccc(O)cc2)C(=O)N[C@@H](CC(N)=O)C(=O)N[C@H](C(=O)NCC(N)=O)CSCC(=O)N[C@@H](Cc2cc(F)c(F)c(F)c2)C(=O)N(C)[C@@H](Cc2ccc(F)cc2)C(=O)N1C` [Example 10562] ({CH2CO}-[Phe(3,4,5-F3)][NMePhe(4-F)][NMeNle][dP]DV[NMeF]E[dPip]WYNCG-NH2; thioether N-13), for which the IC50 lay within 1 to 9.9 nM.

Regarding `CCCC[C@H]1C(=O)N[C@@H](CN)C(=O)N[C@H](C(=O)NCC(N)=O)CSCC(=O)N[C@@H](Cc2ccc(O)cc2)C(=O)N(C)[C@@H](C)C(=O)N[C@@H](CC(=O)O)C(=O)N2CCC[C@H]2C(=O)N[C@@H](Cc2c[nH]cn2)C(=O)N[C@@H](CCC(N)=O)C(=O)N2C[C@H](O)C[C@H]2C(=O)N[C@@H](Cc2c[nH]c3ccccc23)C(=O)N[C@@H](CO)C(=O)N[C@@H](Cc2c[nH]c3ccccc23)C(=O)N(C)[C@@H](CCOC)C(=O)N1C` [Example 10139] ({CH2CO}-Y[NMeA]DPHQ[Hyp]WSW[NMehSer](Me)[NMeNle][Dap]CG-NH2; thioether N-14), the IC50 lay within 1 to 9.9 nM.

For the molecule `CCCC[C@H]1C(=O)N(C)[C@@H](CCCC)C(=O)N[C@@H](C)C(=O)N[C@H](C(=O)NCC(N)=O)CSCC(=O)N[C@@H](Cc2ccc(O)cc2)C(=O)N(C)[C@@H](C)C(=O)N[C@@H](CCC(=O)O)C(=O)N2CCC[C@H]2C(=O)N[C@@H](Cc2cnc[nH]2)C(=O)N[C@@H](CCN)C(=O)N2C[C@H](O)C[C@H]2C(=O)N[C@@H](Cc2c[nH]c3ccccc23)C(=O)N[C@@H](CO)C(=O)N[C@@H](Cc2c[nH]c3ccccc23)C(=O)N1C` [Example 1248] ({CH2CO}-Y[NMeA]EPH[Dab][Hyp]WSW[NMeNle][NMeNle]ACG-NH2; thioether N-14), the IC50 was 10 to 99.9 nM.

Take `CCCC[C@H]1C(=O)N(C)CC(=O)N[C@@H](CC(=O)O)C(=O)N[C@@H](C)C(=O)N(C)[C@@H](Cc2ccccc2)C(=O)N[C@@H](Cc2ccc(O)cc2)C(=O)N2CCC[C@@H]2C(=O)N[C@@H](Cc2c[nH]c3ccccc23)C(=O)N[C@@H](Cc2ccc(O)cc2)C(=O)N[C@@H](CC(C)C)C(=O)N[C@H](C(=O)NCC(N)=O)CSCC(=O)N[C@@H](Cc2ccccc2)C(=O)N(C)[C@@H](Cc2ccccc2)C(=O)N1C` [Example 10080] ({CH2CO}-F[NMeF][NMeNle][Sar]DA[NMeF]Y[dP]WYLCG-NH2; thioether N-13): the IC50 fell in the range of 10 to 99.9 nM.

On to `CCCC[C@H]1C(=O)N(C)[C@@H](CCCC)C(=O)N[C@@H](CCC(=O)O)C(=O)N[C@H](C(=O)NCC(N)=O)CSCC(=O)N[C@@H](Cc2ccc(OC)cc2)C(=O)N(C)[C@@H](C)C(=O)N[C@@H](CC(=O)O)C(=O)N2CCC[C@H]2C(=O)N[C@@H](Cc2c[nH]cn2)C(=O)N[C@@H](CCCCN)C(=O)N2C[C@H](O)C[C@H]2C(=O)N[C@@H](Cc2c[nH]c3ccccc23)C(=O)N[C@@H](CCN)C(=O)N[C@@H](Cc2cn(CC(=O)O)c3ccccc23)C(=O)N1C` [Example 7147] ({CH2CO}-Y(Me)[NMeA]DPHK[Hyp]W[Dab][Trp(1-CH2COOH)][NMeNle][NMeNle]ECG-NH2; thioether N-14), for which the IC50 fell in the range of 1 to 9.9 nM.

As for `CCCC[C@H]1C(=O)N2C[C@H](O)C[C@@H]2C(=O)N[C@@H](CC(=O)O)C(=O)N[C@@H](C(C)C)C(=O)N(C)[C@@H](Cc2ccccc2)C(=O)N[C@@H](CCN)C(=O)N2C[C@H](O)C[C@@H]2C(=O)N[C@@H](Cc2c[nH]c3ccccc23)C(=O)N[C@@H](Cc2ccc(O)cc2)C(=O)N[C@@H](CC(C)C)C(=O)N[C@H](C(=O)NCC(N)=O)CSCC(=O)N[C@@H](Cc2ccc(F)c(F)c2)C(=O)N(C)[C@@H](Cc2ccccc2)C(=O)N1C` [Example 9298] ({CH2CO}-[Phe(3,4-F2)][NMeF][NMeNle][d(cisHyp)]DV[NMeF][Dab][d(cisHyp)]WYLCG-NH2; thioether N-13), the IC50 was 1 to 9.9 nM.

For `CCCC[C@H]1C(=O)N2CSC[C@@H]2C(=O)N[C@@H](CC(=O)O)C(=O)N[C@@H](C(C)C)C(=O)N(C)[C@@H](Cc2ccccc2)C(=O)N[C@@H](Cc2ccc(O)cc2)C(=O)N2CCC[C@@H]2C(=O)N[C@@H](Cc2c[nH]c3ccccc23)C(=O)N[C@@H](Cc2ccc(O)cc2)C(=O)N[C@@H](CC(C)C)C(=O)N[C@H](C(=O)NCC(N)=O)CSCC(=O)N[C@@H](Cc2ccccc2)C(=O)N(C)[C@@H](Cc2ccccc2)C(=O)N1C` [Example 10072] ({CH2CO}-F[NMeF][NMeNle][dThz]DV[NMeF]Y[dP]WYLCG-NH2; thioether N-13), the IC50 lay within 1 to 9.9 nM.

As for `CCCC[C@H]1C(=O)N(C)[C@@H](CCC(=O)O)C(=O)N[C@@H](CN)C(=O)N[C@H](C(=O)NCC(N)=O)CSCC(=O)N[C@@H](Cc2ccc(O)cc2)C(=O)N(C)[C@@H](C)C(=O)N[C@@H](CC(N)=O)C(=O)N2CCC[C@H]2C(=O)N[C@@H](Cc2c[nH]cn2)C(=O)N[C@@H](CCC(=O)O)C(=O)N2C[C@H](O)C[C@H]2C(=O)N[C@@H](Cc2c[nH]c3ccccc23)C(=O)N[C@@H](CCN)C(=O)N[C@@H](Cc2c[nH]c3ccccc23)C(=O)N1C` [Example 5249] ({CH2CO}-Y[NMeA]NPHE[Hyp]W[Dab]W[NMeNle][NMeE][Dap]CG-NH2; thioether N-14), the IC50 fell in the range of 10 to 99.9 nM.

On to `CCCC[C@H]1C(=O)N(C)CC(=O)N[C@@H](CC(=O)O)C(=O)N[C@@H](C(C)C)C(=O)N(C)[C@@H](Cc2ccccc2)C(=O)N[C@@H](Cc2ccc(O)cc2)C(=O)N(C)CC(=O)N[C@@H](Cc2c[nH]c3ccccc23)C(=O)N[C@@H](Cc2ccc(O)cc2)C(=O)N[C@@H](CC(C)C)C(=O)N[C@H](C(=O)NCC(N)=O)CSCC(=O)N[C@@H](Cc2ccc([N+](=O)[O-])cc2)C(=O)N(C)[C@@H](Cc2ccccc2)C(=O)N1C` [Example 3244] ({CH2CO}-[Phe(4-NO2)][NMeF][NMeNle][Sar]DV[NMeF]Y[Sar]WYLCG-NH2; thioether N-13), for which the IC50 lay in the range of 10 to 99.9 nM.

The experiment is the same for the next values; noted with them: PD-L1-His 10 nM, PD-1-Ig 20 nM; read-out: HTRF Human PD-L1/PD-1 Binding Assay IC50.
As for `CCCC[C@H]1C(=O)N(C)[C@@H](CCCC)C(=O)N[C@@H](C)C(=O)N[C@H](C(=O)NCC(N)=O)CSCC(=O)N[C@@H](Cc2ccc(O)cc2)C(=O)N2CCCC[C@H]2C(=O)N[C@@H](CC(N)=O)C(=O)N2CCC[C@H]2C(=O)N[C@@H](Cc2cnc[nH]2)C(=O)N[C@@H](CCC(N)=O)C(=O)N2C[C@H](O)C[C@H]2C(=O)N[C@@H](Cc2c[nH]c3ccccc23)C(=O)N[C@@H](CO)C(=O)N[C@@H](Cc2c[nH]c3ccccc23)C(=O)N1C` [Example 1255], the IC50 came out at 2.6 nM.
